Test results: ChEMBL document CHEMBL3739426, “Synthesis and biological evaluation of novel 2-isoxazoline fused cyclopentane derivatives as potential antimicrobial and anticancer agents” (Medchemcomm, 2015)
In brackets after ≈: the same amount, converted by molar mass.

Key:
Priestia megaterium = test: Antimicrobial activity against Bacillus megaterium by cup plate diffusion method; assay type: functional
Bacillus subtilis = test: Antimicrobial activity against Bacillus subtilis by cup plate diffusion method; assay type: functional
HeLa = test: Cytotoxicity against human HeLa cells after 48 hrs by MTT assay; assay type: functional, cell-based
Escherichia coli = test: Antimicrobial activity against Escherichia coli by cup plate diffusion method; assay type: functional
Candida albicans = test: Antimicrobial activity against Candida albicans by cup plate diffusion method; assay type: functional
A549 = test: Cytotoxicity against human A549 cells after 48 hrs by MTT assay; assay type: functional, cell-based; conditions: A549, 48 h
HT-29 = test: Cytotoxicity against human HT-29 cells after 48 hrs by MTT assay; assay type: functional, cell-based; conditions: HT-29, 48 h
MCF7 = test: Cytotoxicity against human MCF7 cells after 48 hrs by MTT assay; assay type: functional, cell-based; conditions: MCF7, 48 h
Pseudomonas sp. = test: Antimicrobial activity against Pseudomonas sp. by cup plate diffusion method; assay type: functional
[1] = Cytotoxicity against human PC3 cells after 48 hrs by MTT assay; assay type: functional, cell-based; conditions: PC-3, 48 h

Structure (SMILES)	MIC (Priestia megaterium)	MIC (Bacillus subtilis)	MIC (Escherichia coli)	MIC (Candida albicans)	MIC (Pseudomonas sp.)	IC50 (HeLa)	IC50 (A549)	IC50 (HT-29)	IC50 (MCF7)	IC50 [1]
CC1(C)S[C@@H]2[C@H](NC(=O)[C@H](N)c3ccccc3)C(=O)N2[C@H]1C(=O)O [AMPICILLIN]	25 µg/mL (≈ 71.5 µM)	25 µg/mL (≈ 71.5 µM)	–	–	–	–	–	–	–	–
COc1cc([C@@H]2c3cc4c(cc3[C@@H](O[C@@H]3O[C@@H]5CO[C@@H](C)O[C@H]5[C@H](O)[C@H]3O)[C@H]3COC(=O)[C@H]23)OCO4)cc(OC)c1O [ETOPOSIDE]	–	–	–	–	–	2.35 µg/mL (≈ 3.99 µM)	8.9 µg/mL (≈ 15.1 µM)	4.21 µg/mL (≈ 7.15 µM)	11.9 µg/mL (≈ 20.3 µM)	7.2 µg/mL (≈ 12.2 µM)
COC(=O)[C@H]1C[C@@H](C(=O)OC)[C@H]2ON=C(c3ccc4ccccc4c3)[C@H]21	> 100 µg/mL	> 100 µg/mL	> 100 µg/mL	> 100 µg/mL	> 100 µg/mL	> 50 µg/mL	> 50 µg/mL	> 50 µg/mL	> 50 µg/mL	> 50 µg/mL
COC(=O)[C@H]1C[C@@H](C(=O)OC)[C@H]2ON=C(c3ccc(OC)cc3)[C@H]21	> 100 µg/mL	> 100 µg/mL	> 100 µg/mL	> 100 µg/mL	> 100 µg/mL	> 50 µg/mL	> 50 µg/mL	28.9 µg/mL (≈ 86.7 µM)	> 50 µg/mL	> 50 µg/mL
N#Cc1ccc(C2=NO[C@@H]3[C@H](CO)C[C@H](CO)[C@H]23)cc1	21 µg/mL (≈ 77.1 µM)	21 µg/mL (≈ 77.1 µM)	2.1 µg/mL (≈ 7.71 µM)	11 µg/mL (≈ 40.4 µM)	2.1 µg/mL (≈ 7.71 µM)	> 50 µg/mL	> 50 µg/mL	> 50 µg/mL	> 50 µg/mL	> 50 µg/mL
COc1ccc(C2=NO[C@@H]3[C@H](CO)C[C@H](CO)[C@H]23)cc1	> 100 µg/mL	> 100 µg/mL	> 100 µg/mL	> 100 µg/mL	> 100 µg/mL	> 50 µg/mL	36.6 µg/mL (≈ 132 µM)	> 50 µg/mL	23.7 µg/mL (≈ 85.5 µM)	> 50 µg/mL
O=C(O)[C@H]1C[C@@H](C(=O)O)[C@H]2ON=C(c3ccc(Cl)cc3)[C@H]21	30 µg/mL (≈ 96.9 µM)	60 µg/mL (≈ 194 µM)	> 100 µg/mL	> 100 µg/mL	> 100 µg/mL	19 µg/mL (≈ 61.3 µM)	30 µg/mL (≈ 96.9 µM)	> 50 µg/mL	28.5 µg/mL (≈ 92 µM)	> 50 µg/mL

The next lines start with results.

MIC (Priestia megaterium)	MIC (Bacillus subtilis)	MIC (Escherichia coli)	MIC (Candida albicans)	MIC (Pseudomonas sp.)	Structure (SMILES)	IC50 (HeLa)	IC50 (A549)	IC50 (HT-29)	IC50 (MCF7)	IC50 [1]
> 100 µg/mL	> 100 µg/mL	> 100 µg/mL	> 100 µg/mL	> 100 µg/mL	COc1ccc(C2=NO[C@H]3[C@@H]2[C@@H](C(=O)O)C[C@H]3C(=O)O)cc1	> 50 µg/mL	> 50 µg/mL	> 50 µg/mL	> 50 µg/mL	> 50 µg/mL
> 100 µg/mL	> 100 µg/mL	> 100 µg/mL	> 100 µg/mL	> 100 µg/mL	COC(=O)[C@H]1C[C@@H](C(=O)OC)[C@H]2ON=C(c3ccc(Cl)cc3)[C@H]21	> 50 µg/mL	> 50 µg/mL	> 50 µg/mL	> 50 µg/mL	> 50 µg/mL
> 100 µg/mL	> 100 µg/mL	> 100 µg/mL	> 100 µg/mL	> 100 µg/mL	O=C(O)[C@H]1C[C@@H](C(=O)O)[C@H]2ON=C(c3ccccc3Cl)[C@H]21	> 50 µg/mL	> 50 µg/mL	> 50 µg/mL	> 50 µg/mL	> 50 µg/mL
> 100 µg/mL	> 100 µg/mL	78 µg/mL (≈ 266 µM)	> 100 µg/mL	7.8 µg/mL (≈ 26.6 µM)	O=C(O)[C@H]1C[C@@H](C(=O)O)[C@H]2ON=C(c3ccc(F)cc3)[C@H]21	> 50 µg/mL	> 50 µg/mL	> 50 µg/mL	> 50 µg/mL	> 50 µg/mL
> 100 µg/mL	> 100 µg/mL	> 100 µg/mL	> 100 µg/mL	> 100 µg/mL	COC(=O)[C@H]1C[C@@H](C(=O)OC)[C@H]2ON=C(c3ccc(C#N)cc3)[C@H]21	> 50 µg/mL	> 50 µg/mL	> 50 µg/mL	> 50 µg/mL	> 50 µg/mL
48.6 µg/mL (≈ 149 µM)	48.6 µg/mL (≈ 149 µM)	> 100 µg/mL	> 100 µg/mL	> 100 µg/mL	OC[C@@H]1C[C@H](CO)[C@@H]2C(c3ccc(Br)cc3)=NO[C@H]12	> 50 µg/mL	> 50 µg/mL	37.3 µg/mL (≈ 114 µM)	> 50 µg/mL	> 50 µg/mL
> 100 µg/mL	> 100 µg/mL	> 100 µg/mL	> 100 µg/mL	> 100 µg/mL	Cc1ccc(C2=NO[C@@H]3[C@H](CO)C[C@H](CO)[C@H]23)cc1	26.5 µg/mL (≈ 101 µM)	> 50 µg/mL	> 50 µg/mL	> 50 µg/mL	28 µg/mL (≈ 107 µM)
46.8 µg/mL (≈ 152 µM)	46.8 µg/mL (≈ 152 µM)	0.92 µg/mL (≈ 2.99 µM)	4.6 µg/mL (≈ 15 µM)	1.2 µg/mL (≈ 3.9 µM)	COc1ccc(C2=NO[C@@H]3[C@H](CO)C[C@H](CO)[C@H]23)cc1OC	> 50 µg/mL	> 50 µg/mL	> 50 µg/mL	> 50 µg/mL	> 50 µg/mL
